Experimental data reported in patent publication US10314847B2, “Scalarane sesterterpenoid, pharmaceutical composition and topoisomerase II and Hsp90 inhibitor for treating cancer, and use and preparation method thereof” (NATIONAL DONG HWA UNIVERSITY, priority 2017, dated 2019).

How the values were obtained:
Molt 4 = system: Molt 4
Source text: The cell lines were obtained from the American Type Culture Collection (ATCC, Manassas, Va., U.S.A.) or the Japanese Collection of Research Biosources (JCRB) Cell Bank (Japan). […] Antibodies against XIAP, NFκB (p65), GADD, CDK 4, HSF 1, ATF 6 and β-tubulin were obtained from Santa Cruz Biotechnology (Santa Cruz, Calif., U.S.A.). The Hybond ECL transfer membrane and ECL Western blotting detection kits were obtained from Amersham Life Sciences (Amersham, U.K.).
Several cancer cell lines including leukemia K562, Molt 4, and HL 60 cells, prostate cancer LNCaP cells, colon cancer DLD-1 cells and breast cancer T-47D cells were used to evaluate the antiproliferative activity (referring to Table 2).
It is known that mitochondria are critical intracellular loci of ROS production and ROS exposure can lead to the […] opening. The antioxidant, microsomal GST1, in the inner mitochondrial membrane can interact with the mitochondrial permeability transition (MPT) regulator proteins, such as ANT and/or CypD, to form a MPT pore contributing to mitochondria-mediated cell death. In addition, mitochondrial homeostasis of tumor cells is regulated by an organelle-specific Hsp90 chaperone network.

human topoisomerase II = target: T1, human topoisomerase II (Homo sapiens, UniProt P11388); assay: Assay of topoisomerase II catalytic inhibitors and poisons (cell-free pHOT1 DNA relaxation/cleavage); assay type: biochemical
T1 construct: purchased Topogen
T1 sequence (P11388 whole entry): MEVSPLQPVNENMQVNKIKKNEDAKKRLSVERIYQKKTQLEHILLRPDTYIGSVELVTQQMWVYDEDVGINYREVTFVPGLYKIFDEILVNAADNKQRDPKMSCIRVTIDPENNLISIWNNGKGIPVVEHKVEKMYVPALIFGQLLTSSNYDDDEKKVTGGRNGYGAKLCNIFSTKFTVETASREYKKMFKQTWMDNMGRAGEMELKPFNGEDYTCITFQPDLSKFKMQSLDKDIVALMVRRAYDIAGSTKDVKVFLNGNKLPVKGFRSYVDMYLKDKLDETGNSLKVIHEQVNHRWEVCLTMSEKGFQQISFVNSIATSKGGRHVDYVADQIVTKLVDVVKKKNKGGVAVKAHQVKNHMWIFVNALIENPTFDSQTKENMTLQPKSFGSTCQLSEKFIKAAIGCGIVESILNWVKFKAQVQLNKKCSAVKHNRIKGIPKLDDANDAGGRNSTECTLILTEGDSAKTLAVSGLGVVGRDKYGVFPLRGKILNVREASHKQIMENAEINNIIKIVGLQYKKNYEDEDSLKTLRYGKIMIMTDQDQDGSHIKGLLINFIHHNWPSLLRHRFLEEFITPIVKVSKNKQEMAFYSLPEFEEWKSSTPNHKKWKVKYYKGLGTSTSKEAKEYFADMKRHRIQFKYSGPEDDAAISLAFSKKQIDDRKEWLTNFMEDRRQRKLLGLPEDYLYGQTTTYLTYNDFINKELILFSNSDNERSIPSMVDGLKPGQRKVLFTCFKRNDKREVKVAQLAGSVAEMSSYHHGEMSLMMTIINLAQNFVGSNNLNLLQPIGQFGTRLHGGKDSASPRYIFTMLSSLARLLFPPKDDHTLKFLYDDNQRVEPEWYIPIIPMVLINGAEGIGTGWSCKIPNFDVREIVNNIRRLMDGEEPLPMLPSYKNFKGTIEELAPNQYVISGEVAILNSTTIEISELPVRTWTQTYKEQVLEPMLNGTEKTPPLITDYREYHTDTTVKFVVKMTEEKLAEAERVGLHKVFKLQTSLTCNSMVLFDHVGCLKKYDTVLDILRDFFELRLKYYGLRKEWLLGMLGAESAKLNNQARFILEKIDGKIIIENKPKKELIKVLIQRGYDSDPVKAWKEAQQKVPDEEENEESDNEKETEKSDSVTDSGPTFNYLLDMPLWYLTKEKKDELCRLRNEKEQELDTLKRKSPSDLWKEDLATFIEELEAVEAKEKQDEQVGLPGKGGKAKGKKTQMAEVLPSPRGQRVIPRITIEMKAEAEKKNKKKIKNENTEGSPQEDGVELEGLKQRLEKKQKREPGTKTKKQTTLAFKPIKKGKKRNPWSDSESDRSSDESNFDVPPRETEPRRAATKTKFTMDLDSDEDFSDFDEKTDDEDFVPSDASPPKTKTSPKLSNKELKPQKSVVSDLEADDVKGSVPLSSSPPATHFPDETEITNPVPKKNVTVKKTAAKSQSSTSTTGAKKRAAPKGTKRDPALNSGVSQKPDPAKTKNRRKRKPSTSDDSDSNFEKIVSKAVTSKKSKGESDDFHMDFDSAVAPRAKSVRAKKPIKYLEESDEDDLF
Protocol: Assay of Topoisomerase II Catalytic Inhibitors and Poisons:
Reactions were terminated by adding 2 μL of 10% SDS to facilitate trapping the enzyme in a cleavage complex, followed by the addition of 2.5 μL of proteinase K (50 μg/mL) to digest the bound protein (incubated at 37° C. for 15 minutes) and finally by adding 0.1 volume of the sample loading dye. The DNA products were analyzed via electrophoresis through vertical 2% agarose gels at 2 voltage/cm in 0.5×TAE buffer. Gels were stained with ethidium bromide (EtBr) and photographed using an Eagle Eye II system (Stratagene, La Jolla, Calif., U.S.A.). The quantitative analysis of the DNA Topo II activity was performed.

γH2AX = assay: Western blot of γH2AX expression in Molt 4 cells; assay type: cell-based, human; conditions: Molt 4 cells, 0.0625, 0.125 and 0.25 μg/mL, 24 hours
Protocol: Protein expression was analyzed with Western blotting. GAPDH was used as the loading control.
In order to confirm whether the DNA damage-induced by the marine terpenoids of the present invention involved the inhibition of Topo II activity, a cell-free DNA cleavage assay using an enzyme-mediated negatively supercoiled pHOT1 plasmid DNA was applied. […] These marine terpenoids suppressed Topo II activity, resulting in the inhibition of supercoiled DNA relaxation in a dose-dependent manner (FIG. 2(A)). […] To determine whether the apoptotic mechanism of compounds 1 to 3 affects γH2AX (as a biomarker of DNA damage) induction, Western blot analysis was employed to examine the activation of γH2AX.

Molt 4 cells [1] = assay: JC-1 staining, mitochondrial membrane potential disruption; assay type: cell-based, human; conditions: Molt 4 cells, 0.0625, 0.125 and 0.25 μg/mL, 24 hours, dose-dependent
Protocol: Determination of Reactive Oxygen Species (ROS) Generation, Calcium Accumulation, and Matrix Metalloproteinase (MMP) Disruption:
MMP disruption, calcium accumulation and ROS generation were detected with the JC-1 cationic dye (5 μg/mL), the fluorescent calcium indicator (Fluo 3, […]) and the carboxy derivative of fluorescein (carboxy-H2DCFDA, […]), respectively. In brief, the treated cells were labeled with a specific fluorescent dye for 30 minutes. After labeling, cells were washed with PBS and resuspended in PBS at a concentration of 1×10^6 cells/mL before analysis via flow cytometry.

Molt 4 cells [2] = assay: Annexin V/PI apoptosis assay; assay type: cell-based, human; conditions: Molt 4 cells, 0.0625, 0.125 and 0.25 μg/mL, 24 hours, dose-dependent
Protocol: Annexin V/Propidium Iodide (PI) Apoptosis Assay:
The externalization of phosphatidylserine (PS) and membrane integrity were quantified using an annexin V-fluorescein isothiocyanate (annexin V-FITC) staining kit. In brief, 10^6 cells were grown in 35 mm diameter plates and were labeled with annexin V-FITC (10 μg/mL) and PI (20 μg/mL) prior to harvesting. After labeling, all plates were washed with a binding buffer and harvested. Cells were resuspended in the binding buffer at a concentration of 2×10^5 cells/mL before analysis by flow cytometer FACS-Calibur (Becton-Dickinson, San Jose, Calif., U.S.A.) and CellQuest software. Approximately 10,000 cells were counted for each determination.

[3] = system: human Molt 4 tumor xenograft; assay: Human leukemia Molt 4 cells xenograft animal model; assay type: in vivo, mice; conditions: 1.14 μg/g intraperitoneal, 33 days
Protocol: FIG. 3(A) is a diagram showing the effect of compound 3 on the tumor growth in an in vivo human Molt 4 tumor xenograft animal model. Tumor-bearing nude mice were intraperitoneally injected with solvent control (DMSO) and compound 3 (1.14 μg/g) for 33 days. […] Control, n=8; compound 3, n=7.
FIG. 3(B) is a diagram showing the effect of compound 3 on the body weight in the in vivo human Molt 4 tumor xenograft animal model. Tumor-bearing nude mice were intraperitoneally injected with solvent control (DMSO) and compound 3 (1.14 μg/g) for 33 days. The body weight were measured every other day, and the results are expressed as mean±SD. Control, n=8; compound 3, n=7.
Human Leukemia Molt 4 Cells Xenograft Animal Model:
Six-week-old male immunodeficient athymic mice were purchased from the National Laboratory Animal and Research Center (Taipei, Taiwan). All of the animals were maintained under standard laboratory conditions (temperature 24-26° C., 12-12 hour dark-light circle) and fed with a laboratory diet and water. Molt 4 cells (1×10^6) resuspended in 0.2 mL PBS were injected subcutaneously (s.c.) into the right flank of each mouse, and tumor growth was monitored every day. […] Tumor size was measured three times a week using calipers and tumor volumes were calculated according to the standard formula: width^2×length/2.

## CC[C@@H](O)CC(=O)O[C@@H]1C[C@@H]2[C@@]3(C)CCC[C@](C)(CC)[C@@H]3CC[C@@]2(C)[C@@H]2CC=C(C(C)=O)[C@H](C=O)[C@@]12C (relative stereo) [Compound 2, 12β-(3′β-hydroxypentanoyloxy)-20,24-dimethyl-24-oxo-scalara-16-en-25-al]
Molt 4
  Cytotoxic effect IC50, Molt 4: 0.30 µg/mL
Human topoisomerase II; cell-free system, read-out: Topo II activity IC50 (converted)
  IC50: 719 nM
γH2AX
  Expression of γH2AX (DNA damage biomarker): significantly enhanced the expression of γH2AX in a dose-dependent manner
Molt 4 cells [1]
  Mitochondrial membrane potential (JC-1): disruption in mitochondrial membrane potential
Molt 4 cells [2]
  Apoptotic population (annexin-V/PI): increase in the apoptotic population

## CC(C)=CCC/C(C)=C/CC/C(C)=C/CC/C(C)=C/CC1=CC(=O)C=CC1=O [Compound 3, 2-tetraprenil-1,4-benzochinone]
Molt 4
  Cytotoxic effect IC50, Molt 4: 0.34 µg/mL
Human topoisomerase II; 0.08 μg/mL
  inhibition at 0.08 µg/mL: 7%
Human topoisomerase II; 0.312 μg/mL
  inhibition at 0.312 µg/mL: 13%
Human topoisomerase II; 1.25 μg/mL
  inhibition at 1.25 µg/mL: 28%
Human topoisomerase II; 5 μg/mL
  inhibition at 5 µg/mL: 90%
Human topoisomerase II; 20 μg/mL
  inhibition at 20 µg/mL: 98%
Human topoisomerase II; cell-free system
  Topo II activity IC50: 0.43 µg/mL
[3]
  Mice body weights versus control: no significant difference
γH2AX
  Expression of γH2AX (DNA damage biomarker): activation of DNA damage was not observed
Molt 4 cells [1]
  Mitochondrial membrane potential (JC-1): disruption in mitochondrial membrane potential
Molt 4 cells [2]
  Apoptotic population (annexin-V/PI): increase in the apoptotic population
